Results: US20250179047A1, “5-[7-(3,4-DIHYDRO-1H-ISOQUINOLINE-2-CARBONYL)-1,2,3,4 TETRAHYDROISOQUINOLIN-6-YL]-1H-PYRROLE-3-CARBOXAMIDE DERIVATIVES, PHARMACEUTICAL COMPOSITIONS CONTAINING THEM AND THEIR USES AS PRO-APOPTOTIC AGENTS” (LES LABORATOIRES SERVIER, priority 2022, published 2025)

What was measured:
[1] = system: BCL2 G101V; test: TR-FRET competitive binding assay, BCL2 G101V; parameters: species or system human; details: ratio Ki BCL2 G101V / Ki BCL2 WT
Summary of the method: (§1)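 Terbium-labelled N-terminal Halo-fusion BCL2 or BCLXL (E. coli), 0.5 nM, competed against fluorescein-labelled PUMA peptide (2 or 20 nM) for 2 h at 23° C in 50 mM Hepes pH 7.5, 150 mM NaCl, 5% DMSO. TR-FRET 520/495 nm ratio gave IC50 by four-parameter fit; Ki derived from IC50.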

[2] = biological target: BCL2 G101V (Homo sapiens, UniProt P10415, G101V); test: TR-FRET competitive binding assay, BCL2 G101V; details: BCL2 G101V; Ki determined from IC50; read-out: TR_FRET EKI_Bcl2 G101V
Summary of the method: as §1

[3] = biological target: BCLXL WT (Homo sapiens (Human), UniProt Q07817); test: TR-FRET competitive binding assay, BCLXL WT; details: for Ki: BCLXL WT, Ki determined from IC50, read-out: TR_FRET EKI BclxL; for TR_FRET EKI BCLxL/WT selectivty ratio: ratio Ki BCLxL / Ki BCL2 WT
Summary of the method: as §1

[4] = system: KMS-12-PE Bcl-2 WT; test: In vitro cytotoxicity CellTiter-Glo 48 h, KMS-12-PE Bcl-2 WT; type: cell-based; details: Homo sapiens, KMS-12-PE, C50 = concentration needed to reach 50% of the cellular viability
Summary of the method: (§2)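 KMS-12-PE myeloma cells were lentivirally transduced with wild-type or G101V-mutant Bcl-2 and sorted by TagRFP. They were exposed to compounds as 11-point dose responses for 48 h at 37 °C, 5% CO2. Viability was read by CellTiter-Glo ATP luminescence, and C50 was the concentration giving 50% viability.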

[5] = system: KMS-12-PE Bcl-2 G101V; test: In vitro cytotoxicity CellTiter-Glo 48 h, KMS-12-PE Bcl-2 G101V; type: cell-based; details: for Ratio (G101V/WT): C50 KMS-12-PE Bcl-2 G101V over C50 KMS-12-PE Bcl-2 WT; for IC50: Homo sapiens, KMS-12-PE, 48 h, CellTiter-Glo, C50 = concentration needed to reach 50% of the cellular viability
Summary of the method: as §2

[6] = biological target: BCL2 D103Y (Homo sapiens, UniProt P10415, D103Y); test: TR-FRET competitive binding assay, BCL2 D103Y; details: Ki determined from IC50, read-out: TR_FRET EKI_Bcl2 D103Y
Summary of the method: as §1

[7] = biological target: BCL2 WT (Homo sapiens (Human), UniProt P10415); test: TR-FRET competitive binding assay, BCL2 WT; details: Ki determined from IC50, read-out: TR_FRET EKI_Bcl2 WT
Summary of the method: as §1

Sequence of BCLXL WT (Q07817 other isoform, or with tags, fused parts or gaps): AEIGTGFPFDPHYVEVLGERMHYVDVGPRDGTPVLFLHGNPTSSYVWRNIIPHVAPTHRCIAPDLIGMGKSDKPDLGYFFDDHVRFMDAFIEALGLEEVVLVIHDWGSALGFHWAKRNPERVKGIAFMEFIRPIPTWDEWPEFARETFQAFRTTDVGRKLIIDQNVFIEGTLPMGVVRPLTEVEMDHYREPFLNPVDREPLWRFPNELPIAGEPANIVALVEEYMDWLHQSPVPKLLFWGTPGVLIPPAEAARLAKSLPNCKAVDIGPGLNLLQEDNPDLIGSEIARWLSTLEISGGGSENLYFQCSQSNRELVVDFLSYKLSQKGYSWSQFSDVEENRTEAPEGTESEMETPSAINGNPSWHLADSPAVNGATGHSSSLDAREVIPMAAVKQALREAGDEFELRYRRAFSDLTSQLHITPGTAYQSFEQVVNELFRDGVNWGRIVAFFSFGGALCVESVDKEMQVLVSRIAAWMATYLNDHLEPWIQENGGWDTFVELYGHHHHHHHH

SMILES | TR_FRET EKI G101V/WT selectivty ratio [1] | Ki [2] | Ki [3] | TR_FRET EKI BCLxL/WT selectivty ratio [3] | Ki [6] | Ki [7] | IC50 [4] | Ratio (G101V/WT) [5] | IC50 [5]
Cc1c(N(C(=O)c2cc(-c3cc4c(cc3C(=O)N3Cc5ccccc5C[C@H]3CN3CCCCC3)CN(C(=O)Cc3ccc(OCCN5CCOC[C@H]5C)cc3F)CC4)n(C)c2C)c2ccc(O)cc2)cc(C#N)n1C [Example 166, N-(5-cyano-1,2-dimethylpyrrol-3-yl)-5-{2-[2-(2-fluoro-4-{2-[(3R)-3-methylmorpholin-4-yl]ethoxy}phenyl)acetyl]-7-{[(3S)-3-(piperidin-1-ylmethyl)-3,4-dihydro-1H-isoquinolin-2-yl]carbonyl}-3,4-dihydro-1H-isoquinolin-6-yl}-N-(4-hydroxyphenyl)-1,2-dimethylpyrrole-3-carboxamide] | 5.8 | 0.3 nM | 2.7 nM | 62.8 | 0.16 nM | 0.04 nM | 0.0045 µM | 6.5639 | 0.0298 µM
COc1ccc(N(C(=O)c2cc(-c3cc4c(cc3C(=O)N3Cc5ccccc5C[C@H]3CN3CCCCC3)CN(C(=O)Cc3ccc(OCCN5CCOCC5)cc3F)CC4)n(C)c2C)c2ccc(O)cc2)cc1C#N [Example 167, N-(3-cyano-4-methoxyphenyl)-5-[2-(2-{2-fluoro-4-[2-(morpholin-4-yl)ethoxy]phenyl}acetyl)-7-{[(3S)-3-(piperidin-1-ylmethyl)-3,4-dihydro-1H-isoquinolin-2-yl]carbonyl}-3,4-dihydro-1H-isoquinolin-6-yl]-N-(4-hydroxyphenyl)-1,2-dimethylpyrrole-3-carboxamide] | 6.5 | 0.3 nM | 8.4 nM | 171.4 | 0.15 nM | 0.05 nM | 0.0078 µM | 8.5769 | 0.0669 µM
Cc1c(C(=O)N(c2ccc(O)cc2)c2ccc(OC(C)C)c(C#N)c2)cc(-c2cc3c(cc2C(=O)N2Cc4ccccc4C[C@H]2CN2CCCCC2)CN(C(=O)Cc2ccc(OCCN4CCOCC4)cc2F)CC3)n1C [Example 168, N-(3-cyano-4-isopropoxyphenyl)-5-[2-(2-{2-fluoro-4-[2-(morpholin-4-yl)ethoxy]phenyl}acetyl)-7-{[(3S)-3-(piperidin-1-ylmethyl)-3,4-dihydro-1H-isoquinolin-2-yl]carbonyl}-3,4-dihydro-1H-isoquinolin-6-yl]-N-(4-hydroxyphenyl)-1,2-dimethylpyrrole-3-carboxamide] | 4.7 | 0.5 nM | 11 nM | 100.0 | 0.22 nM | 0.11 nM | 0.0075 µM | 7.4599 | 0.0558 µM
CCOC[C@@H]1Cc2ccccc2CN1C(=O)c1cc2c(cc1-c1cc(C(=O)N(c3ccc(O)cc3)c3cc(C#N)n(C)c3C)c(C)n1C)CCN(C(=O)Cc1ccc(OCCN3CCOCC3)cc1F)C2 [Example 169, N-(5-cyano-1,2-dimethyl-pyrrol-3-yl)-5-[7-[(3S)-3-(ethoxymethyl)-3,4-dihydro-1H-isoquinoline-2-carbonyl]-2-[2-[2-fluoro-4-(2-morpholinoethoxy)phenyl]acetyl]-3,4-dihydro-1H-isoquinolin-6-yl]-N-(4-hydroxyphenyl)-1,2-dimethyl-pyrrole-3-carboxamide] | 4.6 | 0.4 nM | 1.2 nM | 12.8 | 0.36 nM | 0.09 nM | 0.0049 µM | 5.082 | 0.0248 µM

Continued, in another order:

TR_FRET EKI G101V/WT selectivty ratio [1] | Ki [2] | Ki [3] | TR_FRET EKI BCLxL/WT selectivty ratio [3] | Ki [6] | Ki [7] | SMILES | IC50 [4] | Ratio (G101V/WT) [5] | IC50 [5]
4.3 | 1.3 nM | 4.5 nM | 15.0 | 1.06 nM | 0.3 nM | Cc1c(N(C(=O)c2cc(-c3cc4c(cc3C(=O)N3Cc5ccccc5C[C@H]3COCC3CC3)CN(C(=O)Cc3ccc(OCCN5CCOCC5)cc3F)CC4)n(C)c2C)c2ccc(O)cc2)cc(C#N)n1C [Example 170, N-(5-cyano-1,2-dimethyl-pyrrol-3-yl)-5-[7-[(3S)-3-(cyclopropylmethoxymethyl)-3,4-dihydro-1H-isoquinoline-2-carbonyl]-2-[2-[2-fluoro-4-(2-morpholinoethoxy)phenyl]acetyl]-3,4-dihydro-1H-isoquinolin-6-yl]-N-(4-hydroxyphenyl)-1,2-dimethyl-pyrrole-3-carboxamide] | 0.0047 µM | 6.4831 | 0.0306 µM
7.1 | 0.2 nM | 1.3 nM | 61.9 | 0.09 nM | 0.02 nM | Cc1c(N(C(=O)c2cc(-c3cc4c(cc3C(=O)N3Cc5ccccc5C[C@H]3CN3CCCC3)CN(C(=O)Cc3c(F)cc(OCCN5CCOCC5)cc3F)CC4)n(C)c2C)c2ccc(O)cc2)cc(C#N)n1C [Example 171, N-(5-cyano-1,2-dimethyl-pyrrol-3-yl)-5-[2-[2-[2,6-difluoro-4-(2-morpholinoethoxy)phenyl]acetyl]-7-[(3S)-3-(pyrrolidin-1-ylmethyl)-3,4-dihydro-1H-isoquinoline-2-carbonyl]-3,4-dihydro-1H-isoquinolin-6-yl]-N-(4-hydroxyphenyl)-1,2-dimethyl-pyrrole-3-carboxamide] | 0.0128 µM | 4.7109 | 0.0603 µM
4.4 | 0.5 nM | 3.2 nM | 29.1 | 0.39 nM | 0.11 nM | COC[C@@H]1Cc2ccccc2CN1C(=O)c1cc2c(cc1-c1cc(C(=O)N(c3ccc(O)cc3)c3cc(C#N)n(C(F)F)c3C)c(C)n1C)CCN(C(=O)Cc1ccc(OCCN3CCOCC3)cc1)C2 [Example 172, N-[5-cyano-1-(difluoromethyl)-2-methyl-pyrrol-3-yl]-N-(4-hydroxyphenyl)-5-[7-[(3S)-3-(methoxymethyl)-3,4-dihydro-1H-isoquinoline-2-carbonyl]-2-[2-[4-(2-morpholinoethoxy)phenyl]acetyl]-3,4-dihydro-1H-isoquinolin-6-yl]-1,2-dimethyl-pyrrole-3-carboxamide] | 0.0061 µM | 4.6557 | 0.0284 µM
5.8 | 0.2 nM | 2.3 nM | 74.2 | 0.16 nM | 0.03 nM | Cc1c(N(C(=O)c2cc(-c3cc4c(cc3C(=O)N3Cc5ccccc5C[C@H]3CN3CCC5(CC5)C3)CN(C(=O)Cc3ccc(OCCN5CCOCC5)cc3F)CC4)n(C)c2C)c2ccc(O)cc2)cc(C#N)n1C [Example 176, 5-[7-[(3S)-3-(5-azaspiro[2.4]heptan-5-ylmethyl)-3,4-dihydro-1H-isoquinoline-2-carbonyl]-2-[2-[2-fluoro-4-(2-morpholinoethoxy)phenyl]acetyl]-3,4-dihydro-1H-isoquinolin-6-yl]-N-(5-cyano-1,2-dimethyl-pyrrol-3-yl)-N-(4-hydroxyphenyl)-1,2-dimethyl-pyrrole-3-carboxamide] | 0.0093 µM | 6.4155 | 0.0596 µM
